Measurements from patent US5668182A, “Method of calming or sedating an animal with a hydroxy benzaldehyde compound” (priority 1996, dated 1997).
Read-outs that look alike come from different tables or passages of the source.

Test system: mice
Assay: Inverted screen test in mice (Example 4)
Type: in vivo
Details: for ED50: Mus musculus, ip, read-out: ED-50 (95% confidence limits); for potency relative to vanillin: early time points (up to 5 minutes), ethanol vehicle itself gives approximately 10% impairment
Method: An inverted screen test was performed on mice to investigate the effect of vanillin and vanillin analogs on muscular function. After i.p. injection of vanillin or vehicle, each mouse was placed on a wire screen (12.8 cm×12.8 cm with a 6 mm mesh size) and the screen was inverted. A positive effect was found if the drug caused the mouse to fall from the screen within 60 seconds. A negative effect was found if the mouse had the ability to climb from the underside of the screen to the top side of the screen within the 60 second time period. Hanging from the underside of the screen without falling but without climbing to the topside at 60 seconds is recorded as a one-half positive effect per the convention of Coughenour, L. L.; Mclean, J. R.; Parker, R. B., "A New Device for the Rapid Measurement of Impaired Motor Function in Mice," Pharmacol. Biochem. Behav., 6: 351-353; 1977. The test was performed at 2, 5, 10, and 30 minutes following administration of vanillin or vehicle. At each of those times, an ED-50 (and 95% confidence limits) was determined for vanillin. Six mice were used in each experimental group.
Several analogs of vanillin were also examined in this test. The chemical structures and chemical names for these compounds are described hereinabove.
The testing of these compounds was limited both by supply of compound and by solubility. Testing was performed at 2, 5, 10, 20 minutes after administration of drug or vehicle. The vehicles used to solubilize the analogs were as follows: 10% ethanol for TBJ1, TBJ2, and TBJ3; 3% ammonium hydroxide solution in saline for FSA (pH=9); 6.7% ammonium hydroxide in saline for TB17 (pH=9.3); and 20% ethanol, 1% ammonium hydroxide solution in saline for TB34 (pH=10.0). ED-50s of compounds (and 95% confidence limits) were calculated in cases where the data permitted the calculation.

In the case of `COC(=O)c1ccc(OC)c(O)c1` [TBJ2], the ED50 (2 min, 2 min post-treatment) is reported as ~100 mg/kg, the ED50 (5 min, 5 min post-treatment) is reported as > 100 mg/kg and the ED50 (10 min, 10 min post-treatment) is reported as 132 mg/kg. For the same molecule, the ED50 (20 min, at 20 min (printed in the 30 min line)) was ~140 mg/kg, the “potency relative to vanillin” value was “approximately equipotent to vanillin” and the “persistence of effect on performance” value (highest dose (200 mg/kg)) was 20 min. For the same molecule, the “potency and duration relative to vanillin” value (mouse, in vivo) was “approximately equipotent and as long or longer acting”.
`COC(=O)c1ccc(O)c(OC)c1` [TBJ1] was tested, and the “effect on performance in inverted screen test” value (200 mg/kg, 5 minutes) was 100%, the “effect on performance in inverted screen test” value (200 mg/kg, 20 minutes) was 75% and the “effect on performance in inverted screen test” value (doses lower than 200 mg/kg) was “did not produce significant effects”.
For `O=Cc1ccc(OCc2ccccc2)c(C(=O)O)c1` [TB17], the “effect on performance in inverted screen test” value (not included in Table 4) was “failed to affect performance”.
In the case of `O=Cc1ccc(O)c(C(=O)O)c1` [FSA], the “effect on performance in inverted screen test” value (not included in Table 4) is reported as “failed to affect performance”.
With `COC(=O)Cc1ccc(O)c(OC)c1` [TBJ3] the “ED-50: activity in words” value (10 min post-treatment, inactive at 200 (mg/kg)) was “inactive”, the ED50 (5 min, 5 min post-treatment) was 99.7 mg/kg and the “time by which effect had essentially abated” value (after injection) was ≤ 10 min. For the same molecule, the “potency relative to vanillin” value was “approximately equipotent to vanillin”.
In the case of `O=Cc1ccc(OCc2ccc(C(=O)O)cc2)c(C(=O)O)c1` [TB34], the “effect on performance in inverted screen test” value (not included in Table 4) is reported as “mild or erratic effects”.
